Where two headings read alike, the source gives them in different places.
Legend:
[1] = tested on: Plasmodium falciparum, NF54 strain (chloroquine sensitive), IEF stage; assay: In vitro antimalarial activity, P. falciparum NF54 strain; format: cell-based
Description: (§1) Detailed protocols have been reported elsewhere.

[2] = tested on: Plasmodium falciparum, FcM29-Cameroon strain (chloroquine-resistant); assay: In vitro antimalarial activity, P. falciparum FcM29-Cameroon strain; format: cell-based; details: for IC50: Plasmodium falciparum, read-out: P. falc. IC50; for activity against P. falciparum (in words): FcM29-Cameroon strain
Description: as §1

[3] = biological target: Trypanosoma brucei farnesyltransferase (Trypanosoma brucei, UniProt Q57U08+Q580J3); assay: Anti-farnesyltransferase assay (T. brucei); format: biochemical
Description: as §1

Jurkat cells [4] = assay: Jurkat cell cytotoxicity assay, Annexin V-FITC/PI flow cytometry; format: cell-based, human; details: for mode of Jurkat cell death (Annexin V-FITC/PI): 100 μM, 24 h treatment, flow cytometry; for concentration at which toxicity towards Jurkat cells is apparent: 24 h
Description: In addition, by using propidium iodide (PI) as a probe, from the observation of treated cells having a significant loss of nuclear DNA in combination with ROS production it was concluded that both 1 and 2 were inducing apoptosis. […] For our assessment of the mechanism of cell death, we used the combination of Annexin V-FITC and PI stains to allow us to evaluate the ability of test compounds 1–6 to induce apoptosis or necrosis (or both) in Jurkat cells. After 24 h treatment in the presence of 100 μM of each test compound, cells were analyzed by flow cytometry to identify live (AnV^−/PI^−), apoptosing (AnV^+/PI^−), necrotic (AnV^−/PI^+) and late apoptotic (AnV^+/PI^+) cells.
Cells were resuspended in cRPMI at 1 × 10^6 cells/mL and 100 μL cells added to individual wells of a 96-well round bottom plate. Compounds were made up in DMSO to 10 mM for a stock solution. A ten-fold dilution series was made for each stock solution in cRPMI from 1 mM to 10 nM and 10 μL of each added to triplicate wells, for final concentrations of 100 μM to 1 nM, along with corresponding DMSO controls. The cells plus compounds were then incubated for 24 h at 37 °C. The cells were washed in ice-cold Annexin V binding buffer (200 mL PBS with 10 mM HEPES, 140 mM NaCl and 2.5 mM CaCl2). The cell pellets were labelled with 5 μL of Annexin V-FITC (BD Pharmingen) for 15 min at 4 °C. Cells were washed again with ice-cold Annexin V buffer and labelled with 10 μL of 5 μg/mL PI for 7 min at 4 °C. Cells were washed and resuspended in FACS buffer, and Annexin V/PI staining analysed using flow cytometry. Annexin V positive cells were undergoing apoptosis, while PI positive cells were necrotic. Double positive cells were dead, while double negative cells were live cells.

[5] = biological target: Human farnesyltransferase (Homo sapiens, UniProt P49354+P49356); assay: Anti-farnesyltransferase assay (human); format: biochemical; details: average of three assays; read-out: FTase (H) IC50
Description: as §1

Jurkat cells [6] = assay: Intracellular ROS, DHR123 flow cytometry; format: cell-based, human; details: top test concentration of 100 μM, 30 min
Description: In the present study, the presence of ROS in Jurkat cells was determined using dihydrorhodamine 123 (DHR123), a cell permeable probe that becomes fluorescent when oxidized to rhodamine 123 in the presence of ROS [7]. Once the cells were loaded with DHR123, they were then treated with test compounds at a range of concentrations, and the mean fluorescent intensity determined by flow cytometry.
Cells were resuspended in HBSS at 1 × 10^6 cells/mL and 100 μL cells added to individual wells of a 96-well round bottom plate. DHR123 was added to the wells for a final concentration of 500 nM per well and cells incubated for 5 min to allow uptake of DHR123. Compounds were made up in DMSO to 10 mM for a stock solution. A ten-fold dilution series was made for each stock solution in HBSS from 1 mM to 10 nM and 10 μL of each added to triplicate wells, for final concentrations of 100 μM to 1 nM, along with corresponding DMSO controls. The assay was incubated at 37 °C for 30 min, and the cells were washed and resuspended in FACS buffer (PBS with 0.1% BSA and 0.2% sodium azide). Intracellular ROS was measured by flow cytometry analysis of DHR123 uptake.

MALME-3M = assay: NCI-60 five-dose in vitro cytotoxicity screening, MALME-3M; format: cell-based, human; details: NCI 5-dose testing
Description: as §1

MDA-MB-435 = assay: NCI-60 five-dose in vitro cytotoxicity screening, MDA-MB-435; format: cell-based, human; details: NCI 5-dose testing
Description: as §1

[7] = tested on: human leukemia T cell line Jurkat; design: method as in PMID 15857147; details: standard cell viability assay; read-out: cytotoxicity towards Jurkat cells IC50; cited from earlier work
Jurkat cells [8] = tested on: Jurkat cells; design: method as in PMID 15857147; details: relative to untreated cells; cited from earlier work
Pf K1 strain = tested on: Pf K1 strain; design: method as in PMID 21958335; details: read-out: antimalarial activity IC50; cited from earlier work
[9] = NF54 strain (chloroquine sensitive), IEF stage, average of two independent assays, read-out: P. falc. IC50
[10] = average of three assays, read-out: FTase (T. b.) IC50
[11] = FcM29-Cameroon strain (chloroquine-resistant), average of three assays

Chain of Trypanosoma brucei farnesyltransferase (Q580J3 entry or part of it): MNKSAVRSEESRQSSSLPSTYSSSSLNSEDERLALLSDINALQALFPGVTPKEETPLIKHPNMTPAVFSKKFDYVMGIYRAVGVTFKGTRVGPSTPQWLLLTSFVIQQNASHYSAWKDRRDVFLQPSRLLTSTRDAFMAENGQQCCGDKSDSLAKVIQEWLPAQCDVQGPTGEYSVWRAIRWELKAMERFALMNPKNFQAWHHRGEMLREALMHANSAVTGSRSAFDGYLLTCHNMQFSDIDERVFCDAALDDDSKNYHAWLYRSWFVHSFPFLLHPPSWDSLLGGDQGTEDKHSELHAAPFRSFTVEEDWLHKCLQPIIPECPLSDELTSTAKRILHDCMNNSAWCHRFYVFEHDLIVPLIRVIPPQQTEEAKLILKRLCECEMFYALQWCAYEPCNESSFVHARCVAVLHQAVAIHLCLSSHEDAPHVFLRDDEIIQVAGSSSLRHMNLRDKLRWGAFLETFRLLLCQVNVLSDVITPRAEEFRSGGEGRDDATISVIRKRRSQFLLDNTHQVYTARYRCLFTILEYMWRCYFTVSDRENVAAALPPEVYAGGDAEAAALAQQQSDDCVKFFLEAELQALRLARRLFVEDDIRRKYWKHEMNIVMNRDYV
Chain of Trypanosoma brucei farnesyltransferase (Q57U08 entry or part of it): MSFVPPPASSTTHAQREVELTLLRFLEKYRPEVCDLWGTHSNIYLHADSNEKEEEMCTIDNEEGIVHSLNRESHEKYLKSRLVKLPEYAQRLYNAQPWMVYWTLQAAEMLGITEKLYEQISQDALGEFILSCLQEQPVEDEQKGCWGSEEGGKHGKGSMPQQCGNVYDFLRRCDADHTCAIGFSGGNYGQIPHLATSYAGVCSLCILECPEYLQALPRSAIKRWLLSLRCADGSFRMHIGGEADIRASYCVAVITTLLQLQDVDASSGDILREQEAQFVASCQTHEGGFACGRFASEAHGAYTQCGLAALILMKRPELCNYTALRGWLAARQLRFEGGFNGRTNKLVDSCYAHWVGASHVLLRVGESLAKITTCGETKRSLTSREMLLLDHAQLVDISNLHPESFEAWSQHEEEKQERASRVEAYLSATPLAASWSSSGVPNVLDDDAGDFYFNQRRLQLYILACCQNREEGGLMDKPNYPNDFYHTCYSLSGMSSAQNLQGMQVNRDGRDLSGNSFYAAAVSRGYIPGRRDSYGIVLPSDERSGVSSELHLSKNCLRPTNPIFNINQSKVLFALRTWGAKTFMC

Structure (SMILES)	IC50 [3, 10] [µM]	IC50 [5] [µM]	IC50 [2, 11] [µM]	mode of Jurkat cell death (Annexin V-FITC/PI) (Jurkat cells [4])	accumulation of intracellular ROS (DHR123 fluorescence) (Jurkat cells [6])	concentration at which toxicity towards Jurkat cells is apparent (Jurkat cells [4]) [µM]	also measured
CCN(CC)CCCC(C)Nc1ccnc2cc(Cl)ccc12 (centres unmarked) [Chloroquine, reference compound]							IC50 ([1]; NF54, read-out: P. falc. IC50): 0.0063 µM; IC50 [2]: 0.45 µM
CC(C)=CCC/C(C)=C/Cc1cc(O)cc2c1OC(/C=C(\C)CCC=C(C)C)C1=C2C(=O)C2=C(NCCS2(=O)=O)C1=O (centres unmarked) [Compound 3]	0.22 ± 0.034	0.14 ± 0.0017	4.56 ± 0.76	cell death by necrosis	the most potent generator of intracellular ROS	~100	GI50 (MALME-3M; Homo sapiens): 0.1 µM; LC50 (MALME-3M; Homo sapiens): 3.4 µM; TGI (MALME-3M): 0.60 µM; GI50 (MDA-MB-435; Homo sapiens): 0.052 µM; LC50 (MDA-MB-435; Homo sapiens): 0.66 µM; TGI (MDA-MB-435): 0.18 µM
CC(C)=CCC/C(C)=C/Cc1cc2c(cc1O)C1=C(C(=O)C3=C(NCCS3(=O)=O)C1=O)C(/C=C(\C)CCC=C(C)C)O2 (centres unmarked) [Compound 2, thiaplidiaquinone B]	3.04 ± 0.3	1.22 ± 0.068	> 17	cell death almost exclusively via apoptosis	only modest levels of accumulation of intracellular ROS	~100	IC50 [7]: ~3 µM; activity against P. falciparum (in words) [2]: inactive; accumulation of intracellular ROS, % of cells (Jurkat cells [8]): 93%
CC(C)=CCC/C(C)=C/Cc1cc(O)cc2c1OC(/C=C(\C)CCC=C(C)C)C1=C2C(=O)C2=C(C1=O)S(=O)(=O)CCN2 (centres unmarked) [Compound 1, thiaplidiaquinone A]	0.74 ± 0.2	0.78 ± 0.17	> 17	inducing both necrosis (PI^+/AV^−) and apoptosis (PI^−/AV^+)	only modest levels of accumulation of intracellular ROS	~100	IC50 [7]: ~3 µM; activity against P. falciparum (in words) [2]: inactive; accumulation of intracellular ROS, % of cells (Jurkat cells [8]): 97%
CC(C)=CCC/C(C)=C/Cc1cc2c(cc1O)C1=C(C(=O)C=CC1=O)C(/C=C(\C)CCC=C(C)C)O2 (centres unmarked) [Compound 6]		1.64 ± 0.3		dominated by late stage apoptosis (PI^+/AV^+)			IC50 [1, 9]: 2.3 µM; IC50 [3]: 6.16 ± 1.4 µM
COC1=CC(=O)C2=C(C1=O)C(/C=C(\C)CCC=C(C)C)Oc1cc(OC)c(O)c(C/C=C(\C)CCC=C(C)C)c12 (centres unmarked) [scabellone B]							IC50 (Pf K1 strain): 4.8 µM

Further lines, with some results ahead:

IC50 [3, 10] [µM]	IC50 [5] [µM]	IC50 [2, 11] [µM]	Structure (SMILES)	mode of Jurkat cell death (Annexin V-FITC/PI) (Jurkat cells [4])	accumulation of intracellular ROS (DHR123 fluorescence) (Jurkat cells [6])	concentration at which toxicity towards Jurkat cells is apparent (Jurkat cells [4]) [µM]	also measured
3.9 ± 0.6	3.7 ± 0.6		CC(C)=CCC/C(C)=C/Cc1cc(O)cc2c1OC(/C=C(\C)CCC=C(C)C)C1=C2C(=O)C=CC1=O (centres unmarked) [Compound 5]	dominated by late stage apoptosis (PI^+/AV^+)			IC50 [1, 9]: 2.2 µM
0.098 ± 0.008	0.054 ± 0.005	4.39 ± 0.77	CC(C)=CCC/C(C)=C/Cc1cc2c(cc1O)C1=C(C(=O)C3=C(C1=O)S(=O)(=O)CCN3)C(/C=C(\C)CCC=C(C)C)O2 (centres unmarked) [Compound 4]	dominantly via apoptosis		~100	
0.01 ± 0.002			CSCC[C@H](NC(=O)c1ccc(NC[C@@H](N)CS)cc1-c1ccccc1)C(=O)O [FTI 276, reference compound]				

From PMC4557015, “Structure-Activity Relationships of the Bioactive Thiazinoquinone Marine Natural Products Thiaplidiaquinones A and B” (Marine Drugs, 2015)
